Literature values as cited in PMC13062086, “A sstR2-targeted radiohybrid theranostic agent for PET imaging and β^- therapy with excellent preclinical performance” (npj Imaging, 2026).

molecular target: T1, human serum albumin (HSA) (Homo sapiens, UniProt P02768); set-up: method as in earlier work; details: literature-known values for calibration curve ref 2-3 (SI; main text 45, 46)
T1 construct: purchased Daicel, Tokyo, Japan Chiralpak HSA column (50 × 3 mm, 5 μm, H13 h-2433)
T1 sequence (P02768 25-609): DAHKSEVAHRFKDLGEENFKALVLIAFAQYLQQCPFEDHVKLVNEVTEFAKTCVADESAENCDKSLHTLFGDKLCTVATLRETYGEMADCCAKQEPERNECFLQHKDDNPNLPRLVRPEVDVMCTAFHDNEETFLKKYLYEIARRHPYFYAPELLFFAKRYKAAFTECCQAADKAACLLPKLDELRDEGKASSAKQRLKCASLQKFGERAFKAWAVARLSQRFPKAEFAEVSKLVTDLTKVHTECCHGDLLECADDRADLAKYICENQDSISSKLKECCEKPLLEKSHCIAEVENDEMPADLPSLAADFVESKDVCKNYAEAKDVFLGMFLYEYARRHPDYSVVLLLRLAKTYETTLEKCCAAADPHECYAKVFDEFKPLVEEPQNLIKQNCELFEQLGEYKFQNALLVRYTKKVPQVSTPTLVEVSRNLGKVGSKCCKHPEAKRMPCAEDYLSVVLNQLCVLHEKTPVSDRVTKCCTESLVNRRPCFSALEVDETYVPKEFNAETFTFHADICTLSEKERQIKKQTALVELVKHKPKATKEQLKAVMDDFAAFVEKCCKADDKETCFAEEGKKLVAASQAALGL

Compound	HSA-binding
Nc1ccccc1 [Aniline]	14.06%
O=C(O)c1ccccc1 [Benzoic acid]	34.27%
OCc1ccccc1 [Benzyl alcohol]	13.15%
COc1ccc(Cl)cc1C(=O)NCCc1ccc(S(=O)(=O)NC(=O)NC2CCCCC2)cc1 [Glibenclamide]	99.00%
Oc1ccccc1 [Phenol]	20.69%
CCCN(CCC)S(=O)(=O)c1ccc(C(=O)O)cc1 [Probenecid]	95.00%
